Reference: patent US7647217B2, “Structure of the farnesoid X receptor ligand binding domain and methods of use therefor” (The Salk Institute for Biological Studies, priority 2002, dated 2010)

What was measured:
mouse FXR = biological target: T1, mouse FXR (Mus musculus, UniProt Q60641); test: CV-1 transient transfection assay with natural promoters of FXR targets (hIBABP, hPLTP, hMRP-2); type: cell-based; settings: for activation of IBABP promoter: hIBABP promoter; for concentration of maximum efficacy / activity on natural promoters: hIBABP, hPLTP, hMRP-2 promoters
T1 construct: expressed in transfected cells; host or cells: CV-1 (monkey)
T1 sequence (Q60641 1-488): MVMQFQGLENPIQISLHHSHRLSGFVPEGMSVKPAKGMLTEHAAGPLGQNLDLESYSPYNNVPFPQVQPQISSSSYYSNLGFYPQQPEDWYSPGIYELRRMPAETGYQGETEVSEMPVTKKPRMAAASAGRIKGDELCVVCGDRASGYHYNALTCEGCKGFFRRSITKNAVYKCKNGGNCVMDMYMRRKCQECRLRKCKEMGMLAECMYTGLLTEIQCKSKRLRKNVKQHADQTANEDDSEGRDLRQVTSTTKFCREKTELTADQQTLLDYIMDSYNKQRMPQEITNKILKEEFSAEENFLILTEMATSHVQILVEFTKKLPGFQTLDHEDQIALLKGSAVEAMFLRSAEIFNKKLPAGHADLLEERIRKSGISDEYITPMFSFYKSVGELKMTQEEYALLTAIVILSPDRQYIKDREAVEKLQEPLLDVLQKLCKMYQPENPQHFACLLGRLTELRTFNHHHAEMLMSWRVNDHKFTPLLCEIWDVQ
T1 sequence (P19793 1-462 partner): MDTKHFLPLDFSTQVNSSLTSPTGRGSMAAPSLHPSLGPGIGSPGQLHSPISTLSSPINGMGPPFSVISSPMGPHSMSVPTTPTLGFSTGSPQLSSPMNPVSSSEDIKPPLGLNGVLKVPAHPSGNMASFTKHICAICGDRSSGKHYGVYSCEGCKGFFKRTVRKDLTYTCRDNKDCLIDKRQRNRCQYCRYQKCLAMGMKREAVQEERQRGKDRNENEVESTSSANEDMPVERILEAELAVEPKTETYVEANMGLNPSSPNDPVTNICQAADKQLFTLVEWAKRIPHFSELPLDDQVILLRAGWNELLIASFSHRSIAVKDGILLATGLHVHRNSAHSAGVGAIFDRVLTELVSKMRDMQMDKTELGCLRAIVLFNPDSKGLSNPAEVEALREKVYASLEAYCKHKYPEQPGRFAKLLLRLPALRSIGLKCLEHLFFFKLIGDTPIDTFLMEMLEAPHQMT
Experimental: FIGS. 2A-2F collectively show the results of ligand activation of CV-1 cells co-transfected with FXR constructs pCMX-mFXR and pCMX-hRXR and a luciferase reporter gene containing various promoters as follows: FIG. 2A with a minimal TK promoter, FIG. 2B with a TK-ECRE*6 promoter, FIG. 2C with a TK-ER8*2 promoter, FIG. 2D with HIBABP promoter, FIG. 2E with a hPLTP promoter, or FIG. 2 with a FhMRP-2 promoter.
For transfection of these constructs, monkey CV-1 HEPG2 and HEK293T cells were grown in DMEM supplemented with 10% FBS, 50 U/ml penicillin G, and 50 μg/ml streptomycin sulfate at 37° C. in 7% CO2. CV-1 cells (60%-70% confluence, 48-well plate) were cotransfected with 16.6 ng of the appropriate expression vector, 100 ng of reporter plasmid, and 100 ng of pCMX-LacZ in 200 μl of DMEM containing 10% FBS by the N-[1-(2,3-dioleoyloxy)propyl]-N,N,N-trimethylammonium methylsulfate (DOTAP)-mediated procedure. After 24 hr, the medium was replaced, and cells were harvested and assayed for luciferase activity 36-48 hr after transfection. The luciferase activity was normalized to the level of β-galactosidase activity. Each transfection was performed in triplicate and repeated at least three times.
For this study, the following gene promoters were used: intestinal bile acid binding protein (IBABP; see, for example, Grober et al. (1999). Identification of a bile acid-responsive element in the human ileal bile acid-binding protein gene. Involvement of the farnesoid X receptor/9-is-retinoic acid receptor heterodimer. J Biol Chem. 274(42), 29749-54>, phospholipid transfer protein (PLTP) (Urizar et al (2000). The farnesoid X-activated receptor mediates bile acid activation of phospholipid transfer protein gene expression. J Biol Chem. 275(50), 39313-7) and multidrug resistance related protein 2 (MRP-2) (Kast et al. (2002), supra), which are all well characterized targets of FXR. The natural promoters of both the IBABP and PLTP genes contain one copy of an inverted repeat with a one base spacing (IR-1) while MRP-2 contains an ER-8 element. […] The most robust activation (28-fold) was seen on the IBABP promoter. Less robust (2-3 fold) but specific activation was observed on the PLTP and MRP-2 promoters.

[1] = biological target: T2, FXR ligand-binding domain (Homo sapiens, UniProt Q96RI1); test: FRET-based coactivator (SRC-1 peptide) binding assay; type: biochemical; settings: for EC50: agonist mode, 8 nM GST-FXR LBD, 16 nM SRC-1 peptide, read-out: EC50 of SRC-1 peptide recruitment
T2 construct: made in house; host or cells: E. coli BL21 (DE3)
T2 sequence (Q96RI1 258-486): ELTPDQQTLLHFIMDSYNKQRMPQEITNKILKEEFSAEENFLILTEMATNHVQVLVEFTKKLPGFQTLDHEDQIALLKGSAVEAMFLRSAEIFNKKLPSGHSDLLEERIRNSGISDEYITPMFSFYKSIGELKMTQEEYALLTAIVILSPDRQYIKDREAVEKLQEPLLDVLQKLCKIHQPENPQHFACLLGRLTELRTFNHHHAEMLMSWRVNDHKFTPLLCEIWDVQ
Experimental: Increasing amounts of the compounds were added as indicated. Binding reactions contained 8 nM Europium labeled GST-FXR ligand-binding domain fusion protein and 16 nM allophycocyanin-labeled SRC-1 receptor binding peptide. Results are expressed at 1000*(665 nm/615 nm).
Standard PCR amplifications of the LBD of human FXR (residues 248 to 476) and sub-cloning techniques were used to generate pGEX Glutathione-s-transferase (GST) and pHIS8-3 (Jez et al. (2000) Dissection of malonyl-coenzyme A decarboxylation from polyketide formation in the reaction mechanism of a plant polyketide synthase. Biochemistry 39, 890-902) prokaryote protein expression vectors. DNA fragments containing hFXR aa248 to 476 were cloned into the BamHI site of pGEX-hFXR, while the cloning sites NcoI and BamHI sites were used in pHIS8-3.
To determine if the compounds identified as ligands could promote the association of FXR with co-activators in vitro, a fluorescence resonance energy transfer (FRET)-based coactivator binding assay was employed (see, for example, Makishima et al. (1999), supra; Urizar et al. (2002). A natural product that lowers cholesterol as an antagonist ligand for FXR. Science. 296(5573), 1703-6). This assay relies on an agonist-induced interaction between the nuclear receptor and its coactivator bringing two fluorogenic partners together resulting in the nuclear receptor ligand-dependent FRET.

SMILES | activation of IBABP promoter (mouse FXR) | concentration of maximum efficacy (mouse FXR) | activity on natural promoters (mouse FXR) | recruitment of SRC-1 peptide [1] | EC50 [1]
CC(C)c1onc(-c2c(Cl)cccc2Cl)c1COc1ccc(/C=C/c2cccc(C(=O)O)c2)c(Cl)c1 [GW4064, reference compound] | 28 fold | 1 µM | – | – | –
COC(=O)/C=C/c1cccc(N(Cc2ccc(-c3ccccc3OC)cc2)C(=O)C(C)C)c1 [SRI-1] | – | – | little or no activity | Weaker recruitment | –
COC(=O)/C=C/c1cccc(N(Cc2ccc(-c3ccc(C(C)(C)C)cc3)cc2)C(=O)C(C)C)c1 [SRI-2] | – | – | little or no activity | Weaker recruitment | –
COC(=O)/C=C/c1cccc(N(Cc2ccc(-c3ccc(N(C)C)cc3)cc2)C(=O)C2CCCCC2)c1 [fexaramine] | 28 fold | 1 µM | – | – | 255 nM
COC(=O)/C=C/c1cccc(N(Cc2ccc(/C=C/c3ccccc3)cc2)C(=O)C2CCCCC2)c1 [fexarene] | 28 fold | 1 µM | – | – | ~255 nM
COC(=O)/C=C/c1cccc(N(Cc2ccc(-c3ccc4c(c3)OCO4)cc2)C(=O)C2CCCCC2)c1 [fexarine] | 28 fold | 1 µM | – | – | 222 nM
